ChEMBL document CHEMBL1201862, “PubChem BioAssay data set” (2004)
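Five compound concentrations were applied to cells in 96-well plates for 48 hours; endpoints were derived by simple linear interpolation of the resulting dose-response curve. GI50 = concentration required for 50% inhibition of growth.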 Activity calls are given as the source filed them. No stated cut-off is given here; in the data, active = GI50 up to about 1.1 µM and inactive = higher.

Columns and labels:
Test in all cases: DTP human tumour cell line panel, 48 h
A549 = tested on: A549
SW-620 = tested on: SW-620
HOP-62 = tested on: HOP-62
COLO 205 = tested on: COLO 205
MOLT-4 = tested on: MOLT-4
ACHN = tested on: ACHN
HCT-116 = tested on: HCT-116
786-0 = tested on: 786-0
SK-MEL-28 = tested on: SK-MEL-28
TK-10 = tested on: TK-10
HCC 2998 = tested on: HCC 2998
OVCAR-4 = tested on: OVCAR-4
LOX IMVI = tested on: LOX IMVI
LXFL 529 = tested on: LXFL 529
SNB-75 = tested on: SNB-75
OVCAR-8 = tested on: OVCAR-8
SK-MEL-5 = tested on: SK-MEL-5
NCI-H460 = tested on: NCI-H460
Malme-3M = tested on: Malme-3M
SNB-19 = tested on: SNB-19
UACC-62 = tested on: UACC-62
SN12C = tested on: SN12C
K562 = tested on: K562
SF-295 = tested on: SF-295
HT-29 = tested on: HT-29
KM12 = tested on: KM12
SK-OV-3 = tested on: SK-OV-3
RPMI-8226 = tested on: RPMI-8226
SR = tested on: SR
DMS-273 = tested on: DMS-273
OVCAR-3 = tested on: OVCAR-3
SF-539 = tested on: SF-539
NCI-H226 = tested on: NCI-H226
XF498 = tested on: XF498
EKVX = tested on: EKVX
SF-268 = tested on: SF-268
HOP-18 = tested on: HOP-18
UO-31 = tested on: UO-31
IGROV-1 = tested on: IGROV-1
M19-MEL = tested on: M19-MEL
NCI-H23 = tested on: NCI-H23
CAKI-1 = tested on: CAKI-1
DMS-114 = tested on: DMS-114
HOP-92 = tested on: HOP-92
UACC-257 = tested on: UACC-257
A498 = tested on: A498
U-251 = tested on: U-251
SNB-78 = tested on: SNB-78
SK-MEL-2 = tested on: SK-MEL-2
CCRF-CEM = tested on: CCRF-CEM
OVCAR-5 = tested on: OVCAR-5
DLD-1 = tested on: DLD-1
M14 = tested on: M14
NCI-H522 = tested on: NCI-H522
HL-60 = tested on: HL-60
HCT-15 = tested on: HCT-15
RXF 393 = tested on: RXF 393

Measured: GI50

Cn1cnc([N+](=O)[O-])c1Sc1nnnn1C
inactive: A549 99.5 µM | SW-620 13.1 µM | HOP-62 > 100 µM | COLO 205 12.8 µM | MOLT-4 9.12 µM | ACHN 16.2 µM | HCT-116 14.9 µM | 786-0 17.6 µM | SK-MEL-28 14.3 µM | TK-10 17.5 µM | HCC 2998 23.6 µM | OVCAR-4 16.9 µM | LOX IMVI 13.4 µM | LXFL 529 12.1 µM | SNB-75 25.3 µM | OVCAR-8 17.2 µM | SK-MEL-5 17.3 µM | NCI-H460 39.8 µM | Malme-3M 13.2 µM | SNB-19 > 100 µM | UACC-62 17.1 µM | SN12C 16.3 µM | K562 16.7 µM | SF-295 > 100 µM | HT-29 19.4 µM | KM12 56.9 µM | SK-OV-3 > 100 µM | RPMI-8226 23 µM | SR 11.4 µM | DMS-273 17.7 µM | OVCAR-3 15.9 µM | SF-539 18.2 µM | NCI-H226 44.7 µM | XF498 15.6 µM | EKVX 18.3 µM | SF-268 21.5 µM | HOP-18 9.86 µM | UO-31 15.3 µM | IGROV-1 19.5 µM | M19-MEL 15.7 µM | NCI-H23 19.6 µM | CAKI-1 17.1 µM | DMS-114 17 µM | HOP-92 12.3 µM | UACC-257 16.3 µM | A498 65.6 µM | U-251 18 µM | SNB-78 12.7 µM | SK-MEL-2 16.9 µM | CCRF-CEM 7.46 µM | OVCAR-5 23.9 µM | DLD-1 14.5 µM | M14 14.8 µM | NCI-H522 6.38 µM

CN(/N=C\c1ccnc2ccccc12)c1ccccc1
inactive: A549 21.6 µM | SW-620 23 µM | HL-60 17.5 µM | HOP-62 28.1 µM | COLO 205 20.3 µM | MOLT-4 > 100 µM | ACHN 31 µM | HCT-116 17.6 µM | 786-0 18.5 µM | SK-MEL-28 29.8 µM | TK-10 35.3 µM | OVCAR-4 25.4 µM | LOX IMVI 17.2 µM | LXFL 529 26.1 µM | SNB-75 32.5 µM | OVCAR-8 38.3 µM | SK-MEL-5 17.3 µM | NCI-H460 23.7 µM | Malme-3M 23.8 µM | SNB-19 29.2 µM | UACC-62 19.5 µM | SN12C 29.9 µM | K562 20.6 µM | SF-295 25.6 µM | HT-29 18.9 µM | KM12 19 µM | SK-OV-3 31.2 µM | RPMI-8226 > 100 µM | DMS-273 20 µM | OVCAR-3 20.2 µM | SF-539 25.7 µM | XF498 29.7 µM | EKVX 9.12 µM | SF-268 56.1 µM | HOP-18 79.1 µM | UO-31 25.1 µM | IGROV-1 45.5 µM | M19-MEL 26.1 µM | NCI-H23 22.3 µM | CAKI-1 31.5 µM | DMS-114 22.7 µM | HOP-92 25.4 µM | UACC-257 20 µM | A498 21 µM | U-251 25.8 µM | SNB-78 34.4 µM | SK-MEL-2 19.5 µM | CCRF-CEM 10 µM | OVCAR-5 16.8 µM | DLD-1 21.5 µM | M14 18.9 µM | RXF 393 30.2 µM | NCI-H522 17.8 µM
17.1 µM: HCT-15

CCN1c2ccccc2C(C(SC)S(=O)(=O)c2ccc(C)cc2)c2c1[nH]c(=O)n(C)c2=O (stereo not given)
> 100 µM: HCT-15
inactive: A549 > 100 µM | SW-620 > 100 µM | HL-60 89.9 µM | HOP-62 > 100 µM | COLO 205 > 100 µM | MOLT-4 94 µM | HCT-116 > 100 µM | 786-0 > 100 µM | SK-MEL-28 > 100 µM | TK-10 > 100 µM | HCC 2998 > 100 µM | OVCAR-4 > 100 µM | LOX IMVI > 100 µM | LXFL 529 > 100 µM | SNB-75 23.7 µM | OVCAR-8 > 100 µM | SK-MEL-5 > 100 µM | Malme-3M 88.1 µM | SNB-19 > 100 µM | UACC-62 > 100 µM | SN12C > 100 µM | K562 > 100 µM | SF-295 > 100 µM | HT-29 > 100 µM | KM12 > 100 µM | SK-OV-3 > 100 µM | RPMI-8226 > 100 µM | DMS-273 > 100 µM | OVCAR-3 > 100 µM | SF-539 > 100 µM | NCI-H226 > 100 µM | XF498 > 100 µM | EKVX > 100 µM | SF-268 > 100 µM | HOP-18 22.9 µM | UO-31 > 100 µM | IGROV-1 > 100 µM | M19-MEL > 100 µM | NCI-H23 > 100 µM | CAKI-1 > 100 µM | DMS-114 > 100 µM | HOP-92 > 100 µM | UACC-257 > 100 µM | A498 > 100 µM | U-251 > 100 µM | SNB-78 > 100 µM | SK-MEL-2 71.1 µM | CCRF-CEM > 100 µM | OVCAR-5 > 100 µM | DLD-1 > 100 µM | NCI-H522 > 100 µM
